Laboratory results as given in ChEMBL document CHEMBL1201862, “PubChem BioAssay data set” (2004).
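These data come from cells grown in 96-well plates and exposed to compound for 48 hours at five concentrations. Here, GI50 denotes the concentration required for 50% inhibition of growth.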 Active and inactive are the calls of the source. Rule as the data show it: active = GI50 up to about 1.1 µM and inactive = higher.

What was measured:
Assay in all cases: NCI tumour cell line growth inhibition, 48 h
NCI-H23 = tested on: NCI-H23
K562 = tested on: K562
HOP-62 = tested on: HOP-62
UACC-257 = tested on: UACC-257
OVCAR-4 = tested on: OVCAR-4
OVCAR-5 = tested on: OVCAR-5
TK-10 = tested on: TK-10
NCI/ADR-RES = tested on: NCI/ADR-RES
SF-539 = tested on: SF-539
SK-MEL-5 = tested on: SK-MEL-5
IGROV-1 = tested on: IGROV-1
HCT-116 = tested on: HCT-116
RPMI-8226 = tested on: RPMI-8226
UO-31 = tested on: UO-31
SR = tested on: SR
COLO 205 = tested on: COLO 205
SNB-75 = tested on: SNB-75
OVCAR-3 = tested on: OVCAR-3
NCI-H460 = tested on: NCI-H460
HCC 2998 = tested on: HCC 2998

Measured: GI50

COc1ccc(NC(=S)N/N=C/c2cccc(C)n2)cc1
inactive: NCI-H23 6.05 µM | K562 1.62 µM | HOP-62 4.32 µM | UACC-257 2.53 µM | OVCAR-4 > 24.1 µM | OVCAR-5 31.5 µM | TK-10 8.13 µM | NCI/ADR-RES 2.78 µM | SF-539 6.12 µM | SK-MEL-5 3.95 µM | IGROV-1 2.37 µM | HCT-116 3.33 µM | RPMI-8226 3.68 µM | UO-31 3.33 µM | SR 3.42 µM | COLO 205 2.63 µM | SNB-75 4.93 µM | OVCAR-3 3.48 µM | NCI-H460 3.46 µM | HCC 2998 8.41 µM
